Source: patent publication US20140288044A1, “COMPOSITIONS AND THERAPEUTIC USES OF IKK-RELATED KINASE EPSILON AND TANKBINDING KINASE 1 INHIBITORS” (Alzheimer's Institute of America, Inc., priority 2011, published 2014)
Where two headings read alike, the source gives them in different places.

Key:
IKKε = molecular target: T1, IKKε (Homo sapiens, UniProt Q14164); experiment: In-vitro IKKε kinase assay (radiolabelled ATP, filterplate); type: biochemical
T1 construct: His-tag (in-house Sf9 preparation) or GST-tag (purchased Invitrogen preparation); these are alternatives, not both on one protein; host or cells: Sf9 cells
T1 sequence (Q14164 1-716): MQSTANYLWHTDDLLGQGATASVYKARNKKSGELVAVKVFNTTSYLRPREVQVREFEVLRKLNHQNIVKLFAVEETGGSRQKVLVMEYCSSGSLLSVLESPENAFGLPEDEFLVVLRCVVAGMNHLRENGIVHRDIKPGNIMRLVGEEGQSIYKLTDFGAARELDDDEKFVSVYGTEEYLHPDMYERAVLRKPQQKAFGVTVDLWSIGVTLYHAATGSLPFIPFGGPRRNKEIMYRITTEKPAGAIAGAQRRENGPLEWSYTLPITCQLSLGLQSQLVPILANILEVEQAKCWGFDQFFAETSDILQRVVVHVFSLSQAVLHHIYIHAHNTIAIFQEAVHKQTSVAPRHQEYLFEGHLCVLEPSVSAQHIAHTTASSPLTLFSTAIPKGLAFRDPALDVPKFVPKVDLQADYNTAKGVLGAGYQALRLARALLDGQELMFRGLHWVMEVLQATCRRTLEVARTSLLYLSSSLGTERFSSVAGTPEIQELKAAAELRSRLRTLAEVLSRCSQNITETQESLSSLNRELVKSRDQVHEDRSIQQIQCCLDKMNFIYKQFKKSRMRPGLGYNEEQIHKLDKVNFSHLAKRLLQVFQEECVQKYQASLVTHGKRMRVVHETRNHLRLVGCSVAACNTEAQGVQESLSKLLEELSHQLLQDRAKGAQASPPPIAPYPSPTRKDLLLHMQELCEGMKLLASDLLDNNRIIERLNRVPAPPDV
In short: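 His-tagged IKKε from Sf9 cells or GST-tagged IKKε, with myelin basic protein, casein or dephosphorylated casein as substrate and 32 μM ATP (2× Km) plus [γ^33]ATP. "Normal" assay used 0.1 μg/ml enzyme; "sensitized" used 0.015 μg/ml with dephosphorylated casein only. Stopped after 30–45 min with phosphoric acid; P-81 filter counts normalized to DMSO after background subtraction.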

[1] = tested on: IKKε-mediated phosphorylation of IRF3; experiment: ELISA for in-situ phosphorylation of IRF3 (phospho-Ser396) in HEK293T cells cotransfected with IRF3 and IKKε; type: cell-based; details: Homo sapiens, HEK-293T
In short: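 HEK293T cells cotransfected with IRF3 and IKKε were treated with compound for 20 h, and lysates were assayed by ELISA for phospho-Ser396 IRF3, normalized to DMSO. Viability was checked in parallel by CellTiter-Glo. For TBK1, cells cotransfected with IRF7 and TBK1 were treated overnight and probed by Western blot for phospho-Ser477/Ser479 IRF7.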

[2] = tested on: RANTES secretion by prostate cancer DU145 cells; experiment: ELISA to detect secreted RANTES, prostate cancer DU145 cells; type: cell-based; details: Homo sapiens, DU-145
Description: Prostate cancer DU145 cells were seeded at 20,000 cells/well in a 96-well tissue culture plate. The following day media was removed and replaced with complete media containing IKKε/TBK1 inhibitor (starting concentration 25 μM, 1:3 dilutions, final DMSO 0.05%). Cells were incubated for 20 hours and culture supernatant used to determine secreted RANTES levels using a commercially available ELISA kit (R & D Systems, Minneapolis, Minn.).

[3] = Table 3, in vitro, read-out: IKKε IC50
[4] = 20 h, HEK293T cells, 20 hours, range given from about 1 μM to about 250 nM, read-out: IC50, in-situ IKKε-mediated phosphorylation of IRF3
[5] = Table 3, HEK293T cells in culture, read-out: pIRF3 ELISA IC50
[6] = DU145 cells, 20 hours, read-out: IC50, inhibition of the secretion of RANTES
[7] = Table 3, DU145 cells in culture, read-out: RANTES Secretion IC50
[8] = "sensitized" assay, read-out: IC50, inhibition of the kinase activity of IKKε
[9] = in-vitro IKKε kinase inhibition assays, given as 0.005 μM (5 nM), read-out: IKKε kinase inhibitory activity (IC50 value)
[10] = 20 h, HEK293T cells, 20 hours, read-out: IC50, in-situ IKKε-mediated phosphorylation of IRF3

Row | SMILES | IC50 (IKKε; [3]) [nM] | IC50 [1, 4] [nM] | IC50 [1, 5] [nM] | IC50 [2, 6] [nM] | IC50 [2, 7] [nM] | IC50 (IKKε; [8]) [nM] | IC50 (IKKε; [9]) [nM] | IC50 [1, 10] [nM]
1 | COCCOC1CN(Cc2ccc(Nc3nccc(-c4ccc(OC5CCOCC5)c(C#N)c4)n3)cn2)C1 [Example Compound 49, 5-{2-[(6-{[3-(2-Methoxyethoxy)azetidin-1-yl]methyl}pyridin-3-yl)amino]pyrimidin-4-yl}-2-(tetrahydro-2H-pyran-4-yloxy)benzonitrile] | 6.11 | 250 to 1000 | 363 | 20 to 60 | 55.8 |  |  | 
2 | CN(CCO)c1ccc(Nc2nccc(-c3ccc(OCC4CC4)c(C#N)c3)n2)cn1 [Example Compound 111, 2-(Cyclopropylmethoxy)-5-[2-({6-[(2-hydroxyethyl)(methyl)amino]pyridin-3-yl}amino)pyrimidin-4-yl]benzonitrile] |  |  |  | 20 to 60 |  | < 5 | < 5 | 
3 | N#Cc1cc(-c2ccnc(Nc3cccnc3)n2)ccc1OC1CCOCC1 [Example Compound 11, 5-[2-(Pyridin-3-ylamino)pyrimidin-4-yl]-2-(tetrahydro-2H-pyran-4-yloxy)benzonitrile] |  |  |  | 60 to 125 |  | < 5 | < 5 | 
4 | COC1CN(Cc2ccc(Nc3nccc(-c4ccc(NC(=O)C5CC5)c(C#N)c4)n3)cn2)C1 [Example Compound 146, N-{2-Cyano-4-[2-({6-[(3-methoxyazetidin-1-yl)methyl]pyridin-3-yl}amino)pyrimidin-4-yl]phenyl}cyclopropanecarboxamide] |  |  |  | 60 to 125 |  |  |  | 
5 | N#Cc1cc(-c2ccnc(Nc3ccc(CN4CCC4)nc3)n2)ccc1OC1CCOCC1 [Example Compound 47, 5-(2-{[6-(Azetidin-1-ylmethyl)pyridin-3-yl]amino}pyrimidin-4-yl)-2-(tetrahydro-2H-pyran-4-yloxy)benzonitrile] | 6.37 | 250 to 1000 | 265 | 20 to 60 | 39.5 |  |  | 
6 | COC1CN(Cc2ccc(Nc3nccc(-c4ccc(OC5CCOCC5)c(C#N)c4)n3)cn2)C1 [Example Compound 48, 5-[2-({6-[(3-Methoxyazetidin-1-yl)methyl]pyridin-3-yl}amino)pyrimidin-4-yl]-2-(tetrahydro-2H-pyran-4-yloxy)benzonitrile] | 2.74 | 250 to 1000 | 315 | 20 to 60 | 52.2 | < 5 | < 5 | 
7 | COCCOC1CN(C(=O)c2ccc(Nc3nccc(-c4ccc(OC5CCOCC5)c(C#N)c4)n3)cn2)C1 [Example Compound 28, 5-{2-[(6-{[3-(2-Methoxyethoxy)azetidin-1-yl]carbonyl}pyridin-3-yl)amino]pyrimidin-4-yl}-2-(tetrahydro-2H-pyran-4-yloxy)benzonitrile] |  |  |  | 60 to 125 |  |  |  | 1000 to 5000
8 | CC(=O)c1ccc(Nc2nccc(-c3ccc(OC4CCOCC4)c(C#N)c3)n2)cn1 [Example Compound 212, 5-{2-[(6-Acetylpyridin-3-yl)amino]pyrimidin-4-yl}-2-(tetrahydro-2H-pyran-4-yloxy)benzonitrile] |  |  |  |  |  | < 5 |  | < 100
9 | N#Cc1cc(-c2ccnc(Nc3cnc(N4CCOCC4)nc3)n2)ccc1OC1CCOCC1 [Example Compound 2, 5-(2-{[2-(Morpholin-4-yl)pyrimidin-5-yl]amino}pyrimidin-4-yl)-2-(tetrahydro-2H-pyran-4-yloxy)benzonitrile] |  |  |  | 60 to 125 |  |  |  | 
10 | N#Cc1cc(-c2ccnc(Nc3ccnc(N4CC(O)C4)c3)n2)ccc1OC1CCN(C(=O)CO)CC1 [Example Compound 240, 2-{[1-(Hydroxyacetyl)piperidin-4-yl]oxy}-5-(2-{[2-(3-hydroxyazetidin-1-yl)pyridin-4-yl]amino}pyrimidin-4-yl)benzonitrile] |  |  |  |  |  | < 5 |  | 1000 to 5000
11 | N#Cc1cc(-c2ccnc(Nc3ccc(N4CCOCC4)nc3)n2)ccc1NC(=O)C1CC1 [Example Compound 141, N-[2-Cyano-4-(2-{[6-(morpholin-4-yl)pyridin-3-yl]amino}pyrimidin-4-yl)phenyl]cyclopropanecarboxamide] | 1.91 |  | 32.6 | 20 to 60 | 21 | < 5 | < 5 | < 100
12 | COCCNC(=O)c1cncc(Nc2nccc(-c3ccc(OC4CCOCC4)c(C#N)c3)n2)c1 [Example Compound 15, 5-({4-[3-Cyano-4-(tetrahydro-2H-pyran-4-yloxy)phenyl]pyrimidin-2-yl}amino)-N-(2-methoxyethyl)pyridine-3-carboxamide] |  | 250 to 1000 |  |  |  | < 5 | < 5 | 
13 | N#Cc1cc(-c2ccnc(Nc3ccc(N4CCOCC4)nc3)n2)ccc1O[C@@H]1CCN(C(=O)CO)C1 [Example Compound 119, 2-{[(3R)-1-(Hydroxyacetyl)pyrrolidin-3-yl]oxy}-5-(2-{[6-(morpholin-4-yl)pyridin-3-yl]amino}pyrimidin-4-yl)benzonitrile] |  |  |  |  |  | < 5 | < 5 | 100 to 250
14 | N#Cc1cc(-c2ccnc(Nc3ccc(/C=C/CN4CCOCC4)nc3)n2)ccc1OC1CCOCC1 [Example Compound 94, 5-[2-({6-[(1E)-3-(Morpholin-4-yl)prop-1-en-1-yl]pyridin-3-yl}amino)pyrimidin-4-yl]-2-(tetrahydro-2H-pyran-4-yloxy)benzonitrile] |  |  |  |  |  |  | < 5 | 100 to 250
15 | N#Cc1cc(-c2ccnc(Nc3ccc(-c4cccnc4)nc3)n2)ccc1OC1CCOCC1 [Example Compound 79, 5-[2-(2,3′-Bipyridin-5-ylamino)pyrimidin-4-yl]-2-(tetrahydro-2H-pyran-4-yloxy)benzonitrile] |  | 250 to 1000 |  |  |  | < 5 | < 5 | 
16 | Cc1cc(Nc2nccc(-c3ccc(O[C@@H]4CCN(C(=O)CO)C4)c(C#N)c3)n2)ccn1 [Example Compound 123, 2-{[(3R)-1-(Hydroxyacetyl)pyrrolidin-3-yl]oxy}-5-{2-[(2-methylpyridin-4-yl)amino]pyrimidin-4-yl}benzonitrile] |  | 250 to 1000 |  |  |  |  | < 5 | 
17 | CC(=O)N(C)Cc1ccc(Nc2nccc(-c3ccc(OC4CCOCC4)c(C#N)c3)n2)cn1 [Example Compound 53, N-{[5-({4-[3-Cyano-4-(tetrahydro-2H-pyran-4-yloxy)phenyl]pyrimidin-2-yl}amino)pyridin-2-yl]methyl}-N-methylacetamide] |  |  |  |  |  |  | < 5 | 100 to 250
18 | N#Cc1cc(-c2ccnc(Nc3ccncc3)n2)ccc1OC1CCOCC1 [Example Compound 34, 5-[2-(Pyridin-4-ylamino)pyrimidin-4-yl]-2-(tetrahydro-2H-pyran-4-yloxy)benzonitrile] |  | 250 to 1000 |  |  |  | < 5 | < 5 | 
